Paper PMC10258805, “Nonpeptidic Oxazole-Based Prolyl Oligopeptidase Ligands with Disease-Modifying Effects on α-Synuclein Mouse Models of Parkinson’s Disease” (Journal of Medicinal Chemistry, 2023)
Entries after “also recorded” stand apart in the source; their conditions may differ.

Molecular target: T1, human FAP (Homo sapiens, UniProt Q12884)
T1 construct: the human secretion signal was replaced with the HoneyBee melittin secretion signal; HoneyBee melittin secretion signal (N); His tag from the C-terminal BaculoDirect vector (inferred from Ni-chelating purification; the vector also adds V5, own knowledge) (C); made in house; host or cells: Sf9 insect cells
T1 sequence (Q12884 26-760 limits assumed): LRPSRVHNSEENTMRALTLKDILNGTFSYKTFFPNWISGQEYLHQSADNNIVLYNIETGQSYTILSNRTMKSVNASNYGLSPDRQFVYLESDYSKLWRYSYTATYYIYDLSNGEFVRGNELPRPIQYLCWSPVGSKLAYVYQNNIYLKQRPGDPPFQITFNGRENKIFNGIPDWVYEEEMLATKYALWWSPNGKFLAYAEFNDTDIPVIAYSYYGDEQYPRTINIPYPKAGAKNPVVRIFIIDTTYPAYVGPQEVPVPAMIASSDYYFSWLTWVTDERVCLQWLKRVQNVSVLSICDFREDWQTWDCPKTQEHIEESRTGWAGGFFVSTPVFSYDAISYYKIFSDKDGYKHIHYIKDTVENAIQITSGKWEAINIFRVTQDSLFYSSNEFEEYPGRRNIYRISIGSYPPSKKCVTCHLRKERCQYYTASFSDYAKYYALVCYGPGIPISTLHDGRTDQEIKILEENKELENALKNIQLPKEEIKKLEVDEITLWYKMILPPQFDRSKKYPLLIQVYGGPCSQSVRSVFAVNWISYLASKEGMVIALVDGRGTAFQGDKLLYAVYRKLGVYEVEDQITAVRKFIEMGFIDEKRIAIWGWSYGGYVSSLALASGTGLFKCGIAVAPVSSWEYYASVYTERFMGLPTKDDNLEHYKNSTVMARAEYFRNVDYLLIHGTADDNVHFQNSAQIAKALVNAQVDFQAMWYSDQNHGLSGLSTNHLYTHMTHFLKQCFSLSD
Test: Close-relative enzyme specificity assay, FAP
Assay type: biochemical
Conditions: 1 or 10 μM
Source text: FAP: A gateway-entry clone for human FAP was purchased from Dharmacon (Accession number DQ891423), and the human secretion signal was replaced with the HoneyBee melittin secretion signal. For transfection and expression of FAP in Sf9 insect cells, the C-terminal BaculoDirect kit from LifeTechnologies was used. The enzyme was purified from the supernatant of the insect cells using immobilized Ni-chelating chromatography (GE Healthcare, Diegem, Belgium), followed by anion-exchange chromatography using a 1 mL HiTrap Q and size exclusion chromatography using the Superdex 200 column (GE Healthcare, Diegem, Belgium).
Measurements were done on the Infinite 200 as above.

## Cc1nc(CCCc2ccccc2)oc1N1CCC[C@H]1C#N [HUP-55, (S)-1-(4-Methyl-2-(3-phenylpropyl)oxazol-5-yl)pyrrolidine-2-carbonitrile]
  inhibition of FAP: no inhibition; also recorded: does not inhibit
